Laboratory results published in the NIST ThermoML archive (doi:10.1021/acs.jced.8b00812).

Details: Liquid; for viscosity: Capillary tube (Ostwald / Ubbelohde) method; for mass density: Vibrating tube method

CCCCCCCCO [octan-1-ol]
Details	mass density [kg/m3]	viscosity [mPa·s]
298.15 K, 2000 kPa	823.6	7.363
298.15 K, 4010 kPa	824.8	7.542
298.15 K, 6000 kPa	826	7.702
298.15 K, 8000 kPa	827.2	7.865
298.15 K, 10000 kPa	828.4	8.031
298.15 K, 13010 kPa	830.1	8.3
298.15 K, 16010 kPa	831.8	8.568
298.15 K, 18990 kPa	833.4	8.825
298.15 K, 22010 kPa	835	9.112
298.15 K, 25010 kPa	836.6	9.397
298.15 K, 28010 kPa	838.3	9.668
298.15 K, 30010 kPa	839.3	9.866
303.15 K, 1990 kPa	819.4	6.327
303.15 K, 3990 kPa	820.6	6.481
303.15 K, 5980 kPa	821.9	6.632
303.15 K, 10010 kPa	824.4	6.941
303.15 K, 16020 kPa	827.9	7.4
303.15 K, 19030 kPa	829.7	7.63
303.15 K, 25000 kPa	833	8.087
303.15 K, 29980 kPa	835.6	8.468
303.16 K, 7980 kPa	823.1	6.785
303.16 K, 13000 kPa	826.2	7.169
303.16 K, 22010 kPa	831.3	7.858
303.16 K, 28000 kPa	834.6	8.316
313.15 K, 1970 kPa	812.3	4.516
313.15 K, 4000 kPa	813.6	4.627
313.15 K, 6010 kPa	815	4.737
313.15 K, 8000 kPa	816.3	4.846
313.15 K, 10010 kPa	817.5	4.955
313.15 K, 13030 kPa	819.4	5.12
313.15 K, 15980 kPa	821.2	5.281
313.15 K, 18990 kPa	823	5.446
313.15 K, 21990 kPa	824.8	5.61
313.15 K, 25000 kPa	826.5	5.774
313.15 K, 27980 kPa	828.2	5.937
313.15 K, 29990 kPa	829.3	6.047
323.15 K, 2010 kPa	805.6	3.262
323.15 K, 4010 kPa	807	3.348
323.15 K, 6010 kPa	808.4	3.427
323.15 K, 8000 kPa	809.7	3.499
323.15 K, 10010 kPa	811.1	3.573
323.15 K, 13020 kPa	813	3.688
323.15 K, 16020 kPa	814.9	3.797
323.15 K, 19010 kPa	816.8	3.91
323.15 K, 22000 kPa	818.6	4.03
323.15 K, 25010 kPa	820.4	4.149
323.15 K, 28010 kPa	822.1	4.264
323.15 K, 30020 kPa	823.3	4.343

CCCCCO [pentan-1-ol]
Details	mass density [kg/m3]	viscosity [mPa·s]
298.15 K, 2000 kPa	813	3.59
298.15 K, 4000 kPa	814.4	3.66
298.15 K, 6000 kPa	815.8	3.732
298.15 K, 8010 kPa	817.1	3.796
298.15 K, 10000 kPa	818.5	3.869
298.15 K, 13000 kPa	820.4	3.975
298.15 K, 16000 kPa	822.3	4.081
298.15 K, 19010 kPa	824.1	4.192
298.15 K, 22000 kPa	825.9	4.299
298.15 K, 25000 kPa	827.6	4.409
298.15 K, 27990 kPa	829.4	4.507
298.15 K, 29980 kPa	830.4	4.577
303.15 K, 19000 kPa	820.3	3.757
303.15 K, 27980 kPa	825.6	4.041
303.16 K, 1980 kPa	808.8	3.219
303.16 K, 3980 kPa	810.2	3.282
303.16 K, 6010 kPa	811.7	3.346
303.16 K, 8020 kPa	813	3.41
303.16 K, 10030 kPa	814.4	3.474
303.16 K, 12990 kPa	816.4	3.567
303.16 K, 15980 kPa	818.4	3.662
303.16 K, 22010 kPa	822.1	3.852
303.16 K, 25000 kPa	823.9	3.947
303.16 K, 29990 kPa	826.7	4.105
313.15 K, 1990 kPa	800.6	2.438
313.15 K, 4000 kPa	802.2	2.486
313.15 K, 5980 kPa	803.7	2.533
313.15 K, 7980 kPa	805.1	2.581
313.15 K, 10020 kPa	806.6	2.629
313.15 K, 13010 kPa	808.7	2.701
313.15 K, 19020 kPa	812.8	2.845
313.15 K, 21980 kPa	814.7	2.916
313.15 K, 30020 kPa	819.6	3.109
313.16 K, 15980 kPa	810.8	2.772
313.16 K, 24990 kPa	816.6	2.988
313.16 K, 28000 kPa	818.4	3.06
323.15 K, 2000 kPa	793.5	1.833
323.15 K, 4000 kPa	795	1.866
323.15 K, 6000 kPa	796.7	1.901
323.15 K, 8000 kPa	798.2	1.935
323.15 K, 10000 kPa	799.6	1.969
323.15 K, 13000 kPa	801.9	2.022
323.15 K, 16000 kPa	804	2.078
323.15 K, 19000 kPa	806.1	2.133
323.15 K, 22000 kPa	808.2	2.189
323.15 K, 25000 kPa	810.2	2.244
323.15 K, 27990 kPa	812.1	2.299
323.15 K, 29990 kPa	813.4	2.335
